Assays:
[1] = Antioxidant activity in ethanol; assay type: functional
[2] = system: Staphylococcus aureus; assay: Bactericidal activity against Staphylococcus aureus ATCC 12598 assessed as inhibition of bacterial growth incubated for 48 hrs by broth macrodilution method; assay type: functional
[3] = system: Staphylococcus aureus; assay: Antibacterial activity against Staphylococcus aureus ATCC 12598 assessed as inhibition of bacterial growth incubated for 48 hrs by broth macrodilution method; assay type: functional
[4] = system: Micrococcus luteus; assay: Antibacterial activity against Micrococcus luteus ATCC 4698 assessed as inhibition of bacterial growth incubated for 48 hrs by broth macrodilution method; assay type: functional
[5] = system: Corynebacterium ammoniagenes; assay: Bactericidal activity against Brevibacterium ammoniagenes ATCC 6872 assessed as inhibition of bacterial growth incubated for 48 hrs by broth macrodilution method; assay type: functional
[6] = system: Bacillus subtilis; assay: Bactericidal activity against Bacillus subtilis ATCC 9372 assessed as inhibition of bacterial growth incubated for 48 hrs by broth macrodilution method; assay type: functional
[7] = system: Corynebacterium ammoniagenes; assay: Antibacterial activity against Brevibacterium ammoniagenes ATCC 6872 assessed as inhibition of bacterial growth incubated for 48 hrs by broth macrodilution method; assay type: functional
[8] = target: T1, Seed linoleate 13S-lipoxygenase-1 (Glycine max, UniProt P08170); assay: Inhibition of soybean LOX-1
T1 sequence (P08170 whole entry): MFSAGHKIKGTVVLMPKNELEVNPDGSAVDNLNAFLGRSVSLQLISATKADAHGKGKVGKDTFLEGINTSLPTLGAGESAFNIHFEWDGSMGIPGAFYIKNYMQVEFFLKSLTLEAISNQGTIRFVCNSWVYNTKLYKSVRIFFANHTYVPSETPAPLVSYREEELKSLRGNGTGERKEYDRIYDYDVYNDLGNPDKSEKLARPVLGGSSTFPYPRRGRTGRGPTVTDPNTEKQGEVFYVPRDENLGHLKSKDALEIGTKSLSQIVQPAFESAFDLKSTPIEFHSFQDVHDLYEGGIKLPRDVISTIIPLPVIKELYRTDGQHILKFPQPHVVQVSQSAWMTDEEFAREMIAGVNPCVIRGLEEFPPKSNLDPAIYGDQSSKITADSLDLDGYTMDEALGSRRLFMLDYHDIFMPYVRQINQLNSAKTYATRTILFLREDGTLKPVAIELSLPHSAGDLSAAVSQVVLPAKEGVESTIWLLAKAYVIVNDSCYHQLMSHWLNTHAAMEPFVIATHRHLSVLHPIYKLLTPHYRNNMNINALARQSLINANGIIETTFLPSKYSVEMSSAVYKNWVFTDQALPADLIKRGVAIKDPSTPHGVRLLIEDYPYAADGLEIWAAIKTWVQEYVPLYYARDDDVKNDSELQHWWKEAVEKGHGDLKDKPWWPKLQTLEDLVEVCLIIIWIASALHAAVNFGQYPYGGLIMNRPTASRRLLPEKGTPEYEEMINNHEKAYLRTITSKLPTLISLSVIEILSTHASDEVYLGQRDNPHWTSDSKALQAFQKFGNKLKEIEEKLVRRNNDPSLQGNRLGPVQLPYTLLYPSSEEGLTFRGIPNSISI

[9] = system: Micrococcus luteus; assay: Bactericidal activity against Micrococcus luteus ATCC 4698 assessed as inhibition of bacterial growth incubated for 48 hrs by broth macrodilution method; assay type: functional
[10] = system: Bacillus subtilis; assay: Antibacterial activity against Bacillus subtilis ATCC 9372 assessed as inhibition of bacterial growth incubated for 48 hrs by broth macrodilution method; assay type: functional

Structure (SMILES)	IC50 [1]	MBC [2]	MIC [3]	MIC [4]	MBC [5]	MBC [6]	MIC [7]	IC50 [8]	MBC [9]	MIC [10]
CCCCCCCCOC(=O)c1cc(O)c(O)c(O)c1 [OCTYL_GALLATE]	19 ppm	–	–	–	–	–	–	–	–	–
CCCCCCCCCCCCOC(=O)c1cc(O)c(O)c(O)c1 [DODECYL GALLATE]	–	> 200 µg/mL	> 200 µg/mL	> 200 µg/mL	> 200 µg/mL	> 200 µg/mL	> 200 µg/mL	1100 nM	> 200 µg/mL	> 200 µg/mL

From ChEMBL document CHEMBL5233258, “Recent developments of gallic acid derivatives and their hybrids in medicinal chemistry: A review” (Eur J Med Chem, 2020)
